In patent US11136313B2, “Compounds, compositions, and methods for modulating CFTR” (Proteostasis Therapeutics, Inc., priority 2015, dated 2021) one finds Activity data, which are given here for 27 molecules.

This assay deals with T1, ΔF508-CFTR (Homo sapiens, UniProt P13569, DEL508-508).
T1 construct: Primary lung epithelial cells homozygous for the Cystic Fibrosis-causing ΔF508 mutation were differentiated for a minimum of 4 weeks; endogenous in cells; host or cells: primary lung epithelial cells (hBE) homozygous for ΔF508, differentiated at an air-liquid interface
T1 sequence (P13569 with tags, fused parts or gaps DEL508-508): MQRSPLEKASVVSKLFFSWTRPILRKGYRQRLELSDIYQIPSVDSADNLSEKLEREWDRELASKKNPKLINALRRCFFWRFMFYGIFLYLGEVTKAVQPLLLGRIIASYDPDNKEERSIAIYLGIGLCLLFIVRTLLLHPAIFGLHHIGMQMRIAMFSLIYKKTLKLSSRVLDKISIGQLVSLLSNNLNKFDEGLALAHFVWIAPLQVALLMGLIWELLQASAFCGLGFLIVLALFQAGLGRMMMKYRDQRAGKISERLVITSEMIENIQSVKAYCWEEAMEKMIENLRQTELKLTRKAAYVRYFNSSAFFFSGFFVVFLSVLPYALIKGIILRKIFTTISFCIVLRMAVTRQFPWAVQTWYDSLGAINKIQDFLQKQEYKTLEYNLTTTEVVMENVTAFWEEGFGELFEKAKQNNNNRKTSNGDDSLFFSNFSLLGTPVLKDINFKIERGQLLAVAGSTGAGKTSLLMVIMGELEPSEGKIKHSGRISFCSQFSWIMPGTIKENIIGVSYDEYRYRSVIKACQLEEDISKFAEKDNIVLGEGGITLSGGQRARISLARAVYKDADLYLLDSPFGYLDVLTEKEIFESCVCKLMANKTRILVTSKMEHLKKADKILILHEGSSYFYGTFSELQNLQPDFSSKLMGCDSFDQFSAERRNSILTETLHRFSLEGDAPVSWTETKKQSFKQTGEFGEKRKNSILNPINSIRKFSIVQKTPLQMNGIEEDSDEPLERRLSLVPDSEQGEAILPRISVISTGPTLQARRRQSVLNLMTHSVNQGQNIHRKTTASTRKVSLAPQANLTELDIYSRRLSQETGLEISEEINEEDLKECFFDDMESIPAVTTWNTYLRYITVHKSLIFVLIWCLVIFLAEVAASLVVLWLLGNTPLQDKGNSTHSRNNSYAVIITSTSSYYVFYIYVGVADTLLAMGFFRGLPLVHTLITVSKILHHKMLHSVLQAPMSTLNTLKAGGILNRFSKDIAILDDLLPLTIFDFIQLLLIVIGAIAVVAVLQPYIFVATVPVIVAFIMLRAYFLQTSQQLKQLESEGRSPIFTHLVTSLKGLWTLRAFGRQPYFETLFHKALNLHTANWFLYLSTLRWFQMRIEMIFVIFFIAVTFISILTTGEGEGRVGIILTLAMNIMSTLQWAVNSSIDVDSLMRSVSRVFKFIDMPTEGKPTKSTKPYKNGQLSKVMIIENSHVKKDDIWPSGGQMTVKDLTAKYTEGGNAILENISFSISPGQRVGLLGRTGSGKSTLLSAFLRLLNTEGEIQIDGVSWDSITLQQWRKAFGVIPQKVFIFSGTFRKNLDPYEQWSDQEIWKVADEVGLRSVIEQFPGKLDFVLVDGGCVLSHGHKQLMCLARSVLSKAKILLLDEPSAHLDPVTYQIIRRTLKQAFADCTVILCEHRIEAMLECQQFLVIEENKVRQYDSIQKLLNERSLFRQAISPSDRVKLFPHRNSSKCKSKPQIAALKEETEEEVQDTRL
Description: hBE equivalent current (Ieq) assay: AUC of equivalent chloride current after forskolin/VX-770 in primary lung epithelial cells homozygous for ΔF508. It counts as cell-based. Conditions: relative to CFTR amplifier (Compound A)+VX-809 (3 uM), compound at 10 uM and Compound A at 3 uM, 24 h treatment. As for the experimental part:
ii. hBE Equivalent Current (Ieq) Assay
Primary lung epithelial cells homozygous for the Cystic Fibrosis-causing ΔF508 mutation were differentiated for a minimum of 4 weeks in an air-liquid interface on Costar 24 well HTS filter plates prior to the equivalent current (Ieq) measurements. Cells were apically mucus-washed for 30 minutes 24 h prior to treatment with compounds. The basolateral media was removed and replaced with media containing the compound of interest diluted to its final concentration from DMSO stocks. Treated cells were incubated at 37° C. and 5% CO2 for 24 hours. At the end of the treatment period, the media was changed to the Ieq experimental solution for 2 hours before the experiment and plates are maintained in a CO2-free incubator during this period. The plates containing the cells were then placed in pre-warmed heating blocks at 36° C.±0.5 for 15 minutes before measurements are taken. The transepithelial voltage (VT) and conductance (GT) were measured using a custom 24 channel current clamp (TECC-24) with 24 well electrode manifold. The Ieq assay measurements were made following additions with standardized time periods: • 1. The baseline VT and GT values were measured for approximately 20 minutes. • 2. Benzamil was added to block ENaC for 15 minutes. • 3. Forskolin plus VX-770 were added to maximally activate ΔF508-CFTR for 27 minutes. • 4. Bumetanide was added to inhibit the NaK2Cl cotransporter and shut-off secretion of chloride.
The activity data captured was the area under the curve (AUC) for the traces of the equivalent chloride current. The AUC was collected from the time of the forskolin/VX-770 addition until the inhibition by bumetanide addition. Correction in response to compound treatment was scored as the increase in the AUC for compound-treated samples over that of vehicle-treated samples.
(+ indicates activity<50% of an CFTR amplifier (Compound A)+VX-809 (3 uM) with compound at 10 uM and Compound A at 3 uM; ++ indicates activity>50% of CFTR amplifier+VX-809 (3 uM) with compound at 10 uM and Compound A at 3 uM.

The structures appear in SMILES notation.

In the case of `Cc1c(-c2cc(C(=O)[O-])c3c(O[C@@H](C)C4CCCCC4)ccc(C)c3n2)oc2ccccc12.[Na+]` [Compound 244], the Activity entry is “++ (activity>50% of CFTR amplifier+VX-809 (3 uM) with compound at 10 uM and Compound A at 3 uM)”.
With `Cc1c(-c2cc(C(=O)O)c3c(O[C@H]4CC[C@@H](c5ncco5)CC4)ccc(C)c3n2)oc2ccccc12` [Compound 196], the Activity entry was “++ (activity>50% of CFTR amplifier+VX-809 (3 uM) with compound at 10 uM and Compound A at 3 uM)”.
For `Cc1c(-c2cc(C(=O)[O-])c3c(OCc4ccc(F)cc4)ccc(C)c3n2)sc2ccccc12.[Na+]` [Compound 291, Sodium 5-[(4-Fluorophenyl)methoxy]-8-methyl-2-(3-methyl-1-benzothiophen-2-yl)quinoline-4-carboxylate], the Activity entry is “++ (activity>50% of CFTR amplifier+VX-809 (3 uM) with compound at 10 uM and Compound A at 3 uM)”.
In the case of `Cc1c(-c2cc(C(=O)O)c3c(OCc4ccccc4)ccc(C(C)C)c3n2)oc2ccccc12` [Compound 109, 5-(Benzyloxy)-2-(3-methyl-1-benzofuran-2-yl)-8-(propan-2-yl)quinoline-4-carboxylic acid] it was “++ (activity>50% of CFTR amplifier+VX-809 (3 uM) with compound at 10 uM and Compound A at 3 uM)”.
On to `Cc1ccc(OC(C)c2ccccc2)c2c(C(=O)[O-])cc(-c3cc4ccccn4c3)nc12.[Na+]` (stereo not drawn) [Compound 328], for which the Activity entry was “++ (activity>50% of CFTR amplifier+VX-809 (3 uM) with compound at 10 uM and Compound A at 3 uM)”.
Turning to `Cc1oc2ccccc2c1-c1cc(C(=O)O)c2c(OCC(F)F)ccc(C)c2n1` [Compound 124, 5-(2,2-Difluoroethoxy)-8-methyl-2-(2-methyl-1-benzofuran-3-yl)quinoline-4-carboxylic acid], the Activity entry was “+ (activity<50% of an CFTR amplifier (Compound A)+VX-809 (3 uM) with compound at 10 uM and Compound A at 3 uM)”.
In the case of `Cc1c(-c2cc(C(=O)[O-])c3c(O[C@H](C)c4ccn5nccc5c4)ccc(C)c3n2)oc2ccccc12.[Na+]` [Compound 257, Sodium 8-Methyl-2-((1R)-3-methyl-1-benzofuran-2-yl)-5-(1-[pyrazolo[1,5-a]pyridin-5-yl]ethoxy)quinoline-4-carboxylate] it was “++ (activity>50% of CFTR amplifier+VX-809 (3 uM) with compound at 10 uM and Compound A at 3 uM)”; in that of `CCc1ccc(OCc2ccccc2)c2c(C(=O)O)cc(-c3csc4ccccc34)nc12` [Compound 158, 2-(1-Benzothiophen-3-yl)-5-(benzyloxy)-8-ethylquinoline-4-carboxylic acid], “++ (activity>50% of CFTR amplifier+VX-809 (3 uM) with compound at 10 uM and Compound A at 3 uM)”; in that of `Cc1cc(C)c2nc(-c3cc4ccccc4o3)c(C)c(C(=O)O)c2c1` [Compound 7, 2-(1-Benzofuran-2-yl)-3,6,8-trimethylquinoline-4-carboxylic acid], “+ (activity<50% of an CFTR amplifier (Compound A)+VX-809 (3 uM) with compound at 10 uM and Compound A at 3 uM)”.
The result for `Cc1c(-c2cc(C(=O)[O-])c3c(O[C@@H](C)C4CCOCC4)ccc(C)c3n2)sc2ccccc12.[Na+]` [Compound 329] reads “++ (activity>50% of CFTR amplifier+VX-809 (3 uM) with compound at 10 uM and Compound A at 3 uM)”; that for `Cc1c(-c2cc(C(=O)[O-])c3c(OC(C)c4ccc(C5COC5)cc4)ccc(C)c3n2)oc2ccccc12.[Na+]` (stereo not drawn) [Compound 372], “++ (activity>50% of CFTR amplifier+VX-809 (3 uM) with compound at 10 uM and Compound A at 3 uM)”.
In the case of `Cc1c(-c2cc(C(=O)[O-])c3c(O[C@@H](C)c4ccc(OC(F)F)cc4)ccc(C)c3n2)oc2ccccc12.[Na+]` [Compound 236] it was “++ (activity>50% of CFTR amplifier+VX-809 (3 uM) with compound at 10 uM and Compound A at 3 uM)”; in that of `Cc1c(-c2cc(C(=O)[O-])c3c(OCc4cccc(F)c4)ccc(C)c3n2)sc2ccccc12.[Na+]` [Compound 290, Sodium 5-[(3-Fluorophenyl)methoxy]-8-methyl-2-(3-methyl-1-benzothiophen-2-yl)quinoline-4-carboxylate], “++ (activity>50% of CFTR amplifier+VX-809 (3 uM) with compound at 10 uM and Compound A at 3 uM)”.
Regarding `Cc1c(-c2cc(C(=O)[O-])c3c(OC4CC(C)(C)OC(C)(C)C4)ccc(C)c3n2)oc2ccccc12.[Na+]` [Compound 334], the Activity result is “++ (activity>50% of CFTR amplifier+VX-809 (3 uM) with compound at 10 uM and Compound A at 3 uM)”.
As to `Cc1cc(C)c2nc(-c3oc4ccccc4c3C)c(C(=O)O)cc2c1` [Compound 105, 6,8-Dimethyl-2-(3-methyl-1-benzofuran-2-yl)quinoline-3-carboxylic Acid], the Activity result is “+ (activity<50% of an CFTR amplifier (Compound A)+VX-809 (3 uM) with compound at 10 uM and Compound A at 3 uM)”.
In the case of `Cc1c(-c2cc(C(=O)[O-])c3c(O[C@H](C)C4CCN(S(C)(=O)=O)CC4)ccc(C)c3n2)oc2ccccc12.[Na+]` [Compound 247, Sodium 5-[(1R)-1-(1-Methanesulfonylpiperidin-4-yl)ethoxy]-8-methyl-2-(3-methyl-1-benzofuran-2-yl)quinoline-4-carboxylate] it was “++ (activity>50% of CFTR amplifier+VX-809 (3 uM) with compound at 10 uM and Compound A at 3 uM)”; in that of `Cc1c(-c2cc(C(=O)[O-])c3c(O[C@@H](CCO)c4ccccc4)ccc(C)c3n2)sc2ccccc12.[Na+]` [Compound 310], “++ (activity>50% of CFTR amplifier+VX-809 (3 uM) with compound at 10 uM and Compound A at 3 uM)”; in that of `Cc1c(-c2cc(C(=O)[O-])c3c(OC[C@H]4C[C@@](C)(O)C4)ccc(C)c3n2)oc2ccccc12.[Na+]` [Compound 374], “++ (activity>50% of CFTR amplifier+VX-809 (3 uM) with compound at 10 uM and Compound A at 3 uM)”.
With `Cc1c(-c2cc(C(=O)O)c3c(O[C@H](C)c4ccccc4)ccc(C)c3n2)sc2ccccc12` [Compound 137, 8-Methyl-2-(3-methyl-1-benzothiophen-2-yl)-5-[(1R)-1-phenylethoxy]quinoline-4-carboxylic Acid], the Activity entry was “++ (activity>50% of CFTR amplifier+VX-809 (3 uM) with compound at 10 uM and Compound A at 3 uM)”.
The result for `Cc1c(-c2cc(C(=O)O)c3c(OCC(F)F)ccc(C)c3n2)oc2ccccc12` [Compound 122, 5-(2,2-Difluoroethoxy)-8-methyl-2-(3-methyl-1-benzofuran-2-yl)quinoline-4-carboxylic acid] reads “++ (activity>50% of CFTR amplifier+VX-809 (3 uM) with compound at 10 uM and Compound A at 3 uM)”.
For the molecule `Cc1c(-c2cc(C(=O)[O-])c3c(O[C@H](C)C4CCOCC4)ccc(C)c3n2)oc2ccccc12.[Na+]` [Compound 245, Sodium 5-((1R)-1-(tetrahydro-2H-pyran-4-yl)ethoxy)-8-methyl-2-(3-methyl-1-benzofuran-2-yl)quinoline-4-carboxylate], the Activity result was “++ (activity>50% of CFTR amplifier+VX-809 (3 uM) with compound at 10 uM and Compound A at 3 uM)”.
The result for `COc1ccc(C)c2nc(-c3cc4ccccc4o3)cc(C(=O)O)c12` [Compound 14, 2-(1-Benzofuran-2-yl)-5-methoxy-8-methylquinoline-4-carboxylic acid] reads “+ (activity<50% of an CFTR amplifier (Compound A)+VX-809 (3 uM) with compound at 10 uM and Compound A at 3 uM)”; that for `Cc1ccc(C)c2c(C(=O)O)cc(-c3oc4cccc(C)c4c3C)nc12` [Compound 128, 2-(3,4-Dimethyl-1-benzofuran-2-yl)-5,8-dimethylquinoline-4-carboxylic acid], “+ (activity<50% of an CFTR amplifier (Compound A)+VX-809 (3 uM) with compound at 10 uM and Compound A at 3 uM)”; that for `Cc1c(-c2cc(C(=O)[O-])c3c(OCC4CCC5(CC4)COC5)ccc(C)c3n2)oc2ccccc12.[Na+]` [Compound 367], “++ (activity>50% of CFTR amplifier+VX-809 (3 uM) with compound at 10 uM and Compound A at 3 uM)”.
The result for `COc1cc(C)c2nc(-c3oc4ccccc4c3C)cc(C(=O)O)c2c1` [Compound 23, 6-Methoxy-8-methyl-2-(3-methyl-1-benzofuran-2-yl)quinoline-4-carboxylic acid] reads “++ (activity>50% of CFTR amplifier+VX-809 (3 uM) with compound at 10 uM and Compound A at 3 uM)”; that for `Cc1c(-c2cc(C(=O)O)c3c(OCc4ccccc4)ccc(Cl)c3n2)oc2ccccc12` [Compound 111, 5-(Benzyloxy)-8-chloro-2-(3-methyl-1-benzofuran-2-yl)quinoline-4-carboxylic acid], “+ (activity<50% of an CFTR amplifier (Compound A)+VX-809 (3 uM) with compound at 10 uM and Compound A at 3 uM)”; that for `Cc1c(-c2cc(C(=O)[O-])c3c(OC[C@H]4C[C@@](C)(O)C4)ccc(C)c3n2)sc2ccccc12.[Na+]` [Compound 320], “++ (activity>50% of CFTR amplifier+VX-809 (3 uM) with compound at 10 uM and Compound A at 3 uM)”.
